# Measurements taken from PMC4749642, “Evaluation of anticonvulsant and antinociceptive properties of new N-Mannich bases derived from pyrrolidine-2,5-dione and 3-methylpyrrolidine-2,5-dione” (Naunyn-Schmiedeberg's Archives of Pharmacology, 2015).
# Values joined by “and” are separate entries in the source; they are usually repeats but may differ in a detail not shown here. Equal entries are not always repeated. Where two headings read alike, the source gives them in different places. Marks after values point to notes of the source that are not given here.
# How the values were obtained:
# [1] = test system: L-type calcium channel (dihydropyridine site); parameters: method as in Kamiński et al. [2015b]; settings: 100 μM; [3H]nitrendipine; rat cerebral cortex; ref Kamiński et al. [2015b]; cited from earlier work
# [2] = test system: L-type calcium channel (dihydropyridine site); test: L-type Ca channel (dihydropyridine site) [3H]nitrendipine binding assay; settings: rat cerebral cortex
# [3] = test system: mice; parameters: method as in Rybka et al. [2014]; settings: ref Rybka et al. [2014], cited from earlier work; for motor coordination in the rotarod test (in words): up to a dose of 500 mg/kg
# [4] = test system: V. harveyi BB7XM; test: Vibrio harveyi mutagenicity assay, BB7XM strain; settings: 40 ng/ml; for Mutagenicity BB7XM M.I. (mutagenic index): positive assay when M.I. ≥ 2
# Description: (§1) Two V. harveyi strains were used in the experiments: wild-type BB7 and genetically modified BB7XM (the UV-hypersensitive strain bearing plasmid pAB91273), which were described previously by Czyż et al. ([2000]).
# (§2) Mutagenicity assay was performed as described previously (Czyż et al. [2000]). All experiments were carried out in triplicate and the results were expressed as mutagenic index (M.I. = the number of revertant colonies induced in the tested sample/the number of spontaneous revertants in the negative control) (Gulluce et al. [2010]).
# [5] = test system: mice; test: Formalin hind paw test; assay type: in vivo, mouse; settings: dose 30 mg/kg i.p.; for antinociceptive effect (reduction of licking response), second (late) phase: 15–30 min after 5 % formalin
# Description: (§3) Male CD-1 mice weighing 18–24 g were used in the in vivo experiment. The animals were kept at room temperature of 20 ± 2 °C under standard conditions (12:12 h light-dark cycle, standard pellet diet, tap water). All the experiments were performed between 8 a.m. and 3 p.m. For the experiments, the animals were selected in a random way and sacrificed by cervical dislocation immediately after the assay. The experimental protocol was approved by the Local Ethics Commission for Animal Experiments of the Jagiellonian University in Cracow, and all experiences were conducted in accordance with the 1996 NIH Guide for the Care and Use of Laboratory Animals.
# (§4) The tested compounds 12 (N-[{4-(3,4-dichlorophenyl)-piperazin-1-yl}-methyl]-3-methylpyrrolidine-2,5-dione), 13 (N-[{4-(3-trifluoromethylphenyl)-piperazin-1-yl}-methyl]-3-methylpyrrolidine-2,5-dione), 15 (N-[{4-(3-methylphenyl)-piperazin-1-yl}-methyl]-3-methylpyrrolidine-2,5-dione), 23 (N-[{4-(3,4-dichlorophenyl)-piperazin-1-yl}-methyl]-pyrrolidine-2,5-dione), and 24 (N-[{4-(3-trifluoromethylphenyl)-piperazin-1-yl}-methyl]-pyrrolidine-2,5-dione) were synthesized at the Department of Medicinal Chemistry, Jagiellonian University Medical College in Cracow (Scheme 1). The synthesis of the investigated compounds was described earlier (Rybka et al. [2014]). The investigated compounds were suspended in a 0.5 % aqueous solution of methylcellulose (Loba Chemie, Germany). Lacosamide (Vimpat, UCB Pharma, Belgium), pilocarpine (Sigma-Aldrich, Germany), scopolamine butylbromide (Sigma-Aldrich, Germany), and formaldehyde (POCh, Poland) were dissolved in distilled water. Agents were administered intraperitoneally (i.p.) at a volume of 0.1 ml/10 g. Control animals were administered an equivalent volume of vehicle (0.5 % aqueous solution of methylcellulose) via the same route as the test compounds.
# Antinociceptive activity in the formalin hind paw test was examined according to Laughlin et al. ([2002]). Twenty microliters of a 5 % formalin solution was injected intraplantarly (i.pl.) into the right hind paw of the mouse. […] Time (in seconds) spent on licking or biting the injected hind paw in selected intervals, 0–5 and 15–30 min, was measured in each experimental group and was an indicator of nociceptive behavior. In mice, intraplantarly injection of diluted formalin produces a biphasic nocifensive behavioral response (i.e., licking or biting the injected hind paw). The acute nociceptive phase lasts for the first 5 min, whereas the second inflammatory phase occurs between 15 and 30 min after formalin injection.
# [6] = test system: mice; test: Electroconvulsive threshold test (MEST test); assay type: in vivo, mouse; settings: 4 h before the test; for CS50 (mA) (CI): value with 95 % confidence interval
# [7] = test system: V. harveyi BB7XM; test: Vibrio harveyi antimutagenicity assay (vs NQNO), BB7XM strain; assay type: cell-based; settings: for Antimutagenicity BB7XM number of revertants Mean ± SD: test compound plus NQNO 40 ng/ml (NQNO line: mutagen only); for Antimutagenicity BB7XM Inhib. (%) of mutagenicity: test compound plus NQNO 40 ng/ml, 25–40 % moderate, 40 % or more strong
# Description: as §1
# (§5) Antimutagenicity assay was performed according to previously described procedures (Czyż et al. [2002]; Pękala et al. [2013]). […] This was calculated as follows: Inhibition (%) = 100 − [(R1/R2) × 100], where R1 is the number of revertants per plate induced by test compound plus mutagen and R2 is the number of revertants in the plate containing only the mutagen (Słoczyńska et al. [2010]). No antimutagenic effect was considered when the inhibition was less than 25 %; a moderate effect for an inhibition value between 25 and 40 % and a strong antimutagenicity were recorded for inhibition higher than 40 % (Gulluce et al. [2010]).
# [8] = test system: V. harveyi BB7; test: Vibrio harveyi mutagenicity assay, BB7 strain; settings: 40 ng/ml; for Mutagenicity BB7 M.I. (mutagenic index): positive assay when M.I. ≥ 2
# Description: as §1, §2
# [9] = test system: mice; settings: ref Rybka et al. [2014]; cited from earlier work
# [10] = test system: mice; test: Pilocarpine-induced seizure test; assay type: in vivo, mouse; settings: for Latency to status epilepticus (s) ± SEM: 4 h before pilocarpine 400 mg/kg; for Anticonvulsant effect (%) (prolongation of latency time to seizures vs vehicle): 4 h before pilocarpine, 100 mg/kg
# Description: as §3, §4
# The experimental procedure was originally described by Turski et al. ([1987]). Seizures were induced in mice by i.p. injection of pilocarpine at a dose of 400 mg/kg. Forty-five minutes before pilocarpine, animals were also pretreated with scopolamine butylbromide (1 mg/kg, i.p.) to reduce peripheral autonomic side effects and masticatory and stereotyped movements (Kowalczyk et al. [2014]). Direct observation was performed for 60 min to monitor the latency time to the onset of the limbic seizures, characterized by a subsequent development of behavioral symptoms, such as tremor, head bobbing, and myoclonic movements of the forelimbs progressing to recurrent myoclonic convulsions with rearing, salivation, falling, and status epilepticus (Łuszczki et al. [2008]; Turski [2000]).
# [11] = test system: mice; test: Hot plate test; assay type: in vivo, mouse; settings: dose 30 mg/kg i.p.
# Description: as §3, §4
# In the hot plate test, the mice were i.p. pretreated either with the test compound or vehicle before placing the animal on the hot plate apparatus (Panlab/Harvard Apparatus, Spain). This apparatus has an electrically heated surface and is supplied with a temperature controller that maintains the temperature at 55–56 °C. The time to the first reaction (licking or jumping) of mice to a nociceptive stimulus was recorded. The cutoff time was established to 60 s to avoid paw tissue damage (Sałat et al. [2014]).
# [12] = test system: mice; test: Spontaneous locomotor activity (photoresistor actometers); assay type: in vivo, mouse; settings: dose 30 mg/kg i.p.; 30-min session
# Description: as §3, §4
# Locomotor activity was measured with photoresistor actometers (Ugo Basile, Italy) connected to a counter for the recording of light-beam interruptions. Mice were individually placed in plastic cages for 30 min habituation period, and then the number of light-beam crossings was counted for a 30-min session. The cages were cleaned up with 70 % ethanol after each mouse.
# [13] = test system: V. harveyi BB7; test: Vibrio harveyi antimutagenicity assay (vs NQNO), BB7 strain; assay type: cell-based; settings: for inhibition of NQNO-induced mutagenicity in BB7 strain (in words): NQNO 40 ng/ml; for Antimutagenicity BB7 number of revertants Mean ± SD: test compound plus NQNO 40 ng/ml (NQNO line: mutagen only); for Antimutagenicity BB7 Inhib. (%) of mutagenicity: test compound plus NQNO 40 ng/ml, 25–40 % moderate, 40 % or more strong
# Description: as §1, §5
SMILES,% inhibition of control specific binding ([2]; 10 μM) [%],% inhibition of control specific binding ([2]; 100 μM) [%],motor coordination in the rotarod test (in words) [3],Mutagenicity BB7XM number of revertants Mean ± SD [4],Mutagenicity BB7XM M.I. (mutagenic index) [4],"antinociceptive effect (reduction of licking response), second (late) phase [5] [%]",increase of electroconvulsive threshold (ECT) vs vehicle ([6]; dose 10 mg/kg i.p.) [%],CS50 (mA) (CI) ([6]; dose 10 mg/kg i.p.),increase of electroconvulsive threshold (ECT) vs vehicle ([6]; dose 30 mg/kg i.p.) [%],CS50 (mA) (CI) ([6]; dose 30 mg/kg i.p.),Antimutagenicity BB7XM number of revertants Mean ± SD [7],Antimutagenicity BB7XM Inhib. (%) of mutagenicity [7],Mutagenicity BB7 number of revertants Mean ± SD [8],Mutagenicity BB7 M.I. (mutagenic index) [8],ED50 in the s.c.PTZ test [9] [mg/kg],Latency to status epilepticus (s) ± SEM ([10]; dose 100 mg/kg i.p.) [s],Anticonvulsant effect (%) (prolongation of latency time to seizures vs vehicle) ([10]; dose 100 mg/kg i.p.),"influence on locomotor activity (number of crossings, in words) [12]",inhibition of NQNO-induced mutagenicity in BB7 strain (in words) [13],Antimutagenicity BB7 number of revertants Mean ± SD [13],other results
CC1(C)O[C@@H]2[C@@H](CO[C@@]3(COS(N)(=O)=O)OC(C)(C)O[C@@H]23)O1 [Topiramate],,,,,,,,,,,,,,,,,,,,,% inhibition of control specific binding [1]: 7.9%
"CC1CC(=O)N(CN2CCN(c3ccc(Cl)c(Cl)c3)CC2)C1=O (centres unmarked) [Compound 12, N-[{4-(3,4-dichlorophenyl)-piperazin-1-yl}-methyl]-3-methylpyrrolidine-2,5-dione]",20.2,59.4,did not impair the motor coordination,14 ± 6,1.2,74,51,7.94 (6.57–9.57)*** mA,118,14.27 (8.21–24.80)** mA,23 ± 5,(5) %,25 ± 4,1.5,134.0,468.8 ± 39.60,37% and 36.8%,did not significantly influence on locomotor activity,moderate inhibitors,28 ± 4,"TD50 in rotarod test ([3]; mice): > 500 mg/kg; reduction of the duration of the licking response, first (neurogenic) phase ([5]; 0–5 min after 5 % formalin): 39%; prolongation of latency time to pain reaction vs vehicle [11]: 44%; latency time to pain reaction ([11]; mean ± SEM, vehicle 27.51 ± 1.36 s, cutoff 60 s): 39.73 ± 3.20 s; Antimutagenicity BB7 Inhib. (%) of mutagenicity [13]: (26) %"
"O=C1CCC(=O)N1CN1CCN(c2ccc(Cl)c(Cl)c2)CC1 [Compound 23, N-[{4-(3,4-dichlorophenyl)-piperazin-1-yl}-methyl]-pyrrolidine-2,5-dione]",12.3,65.9,did not impair the motor coordination,9 ± 3,0.7,89,27,8.42 (7.55–9.39)** mA,61,10.53 (8.06–13.77)**** mA,24 ± 2,(1) %,19 ± 2,1.2,128.8,669.4 ± 73.04,95% and 95.4%,significantly reduced the number of crossings,weakly suppressed,32 ± 3,"effect on nocifensive response, first (neurogenic) phase (in words) ([5]; 0–5 min after 5 % formalin): did not attenuate the nocifensive response in this phase in a statistically significant manner; Latency to status epilepticus (s) ± SEM ([10]; dose 30 mg/kg i.p.): 465.8 ± 37.61 s; antinociceptive activity in the hot plate test (in words) [11]: did not show activity; Antimutagenicity BB7 Inhib. (%) of mutagenicity [13]: (15) %"
